Results taken from paper PMC10747602, “Dose Response, Dosimetric, and Metabolic Evaluations of Replacement PFAS Perfluoro-(2,5,8-trimethyl-3,6,9-trioxadodecanoic) Acid (HFPO-TeA)” (Toxics, 2023).
“And” between values parts separate entries of the source, which are not always exact repeats. Identical values can stand only once. Like-named read-outs stand apart in the source and are kept apart here.

Assay: Plasma HFPO-TeA dosimetry
Assay type: in vivo, Sprague Dawley rats
Experimental: Whole blood was collected from the retro-orbital plexus under isoflurane anesthesia 2 h following the first dose and by cardiac puncture 24 h after the last dosage. Blood was stored in anticoagulant potassium ethylenediaminetetraacetic acid (K3EDTA)-coated vacutainers, and then processed to isolate plasma via centrifugation. Animals were euthanized via carbon dioxide asphyxiation and subsequent exsanguination. Liver was collected, weighed, cubed, and divided into three aliquots. One aliquot of tissue was flash-frozen in liquid nitrogen and stored at −80 °C for analytical chemistry analyses. The remaining two aliquots were placed in RNALater and frozen for use in the companion transcriptomic study. Liver and plasma samples were received at the U.S. EPA Center for Computational Toxicology and Exposure, Advanced Analytical Chemistry Methods Branch in Research Triangle Park, North Carolina, USA, and stored at −80 °C prior to extraction.
Detailed information on the procedure, chemicals, and materials used in the plasma HFPO-TeA dosimetry work can be found in Supplementary Text S4 and Table S3. Plasma preparation (2 h and 5 days) was modified from Conley et al.’s work and is detailed in Supplementary Text S4 [45]. Briefly, aliquots (25 µL) were mixed with methanol (MeOH) and water (H2O) containing 0.1 M FA, spiked with the internal standard perfluorohexadecanoic acid (PFHxDA), and then denatured plasma proteins were precipitated using ACN. Samples were held at −20 °C then centrifuged for separation of the supernatant. Supernatants were collected and stored at −20 °C prior to analysis.
Targeted analysis of HFPO-TeA was conducted on a Sciex X500R QTOF liquid chromatography/mass spectrometer system operated in high-resolution MRM negative ion ESI mode. A Phenomenex C18 column (Kinetex XB-C18, 100 × 2.1 mm, particle size 2.6 µm) was used for chromatographic separation with the flow rate set to 0.2 mL/min and a temperature of 40 °C. […] Ammonium formate (4 mM) was added to both eluents. Additional details of the instrument parameters are provided in Table S8 and monitored transitions in Table S9. Matrix blanks were analyzed with each sample set. Statistical analysis is described in Supplementary Text S3. Normalization calculations are described in Supplementary Text S5 [47, 48].
All in vivo results values are reported as mean ± one standard deviation (SD). Statistical evaluation of in vivo data was conducted using a two-way analysis of variance (ANOVA) and Dunnett’s Test, both at α = 0.05 significance level, on GraphPad Prism v9.5.1.
Support ing Text S4: Plasma Dosimetry Chemicals, Materials, and Analysis Sprague Dawley rodent plasma (pooled, mixed sex) collected with ethylenediaminetetraacetic acid (EDTA) and sterile filtered (0.2 µm) was obtained from BioIVT (Westbury, NY, USA) and stored at -80 °C until use as the control matrix for generating calibration curves and as the matrix blank during plasma sample analysis. The HFPO-TeA (98.97% pure) used for calibration curve preparation was obtained from Oakwood Products Inc. (West Columbia, South Carolina, USA). Unlabeled perfluorohexadecanoic acid (CASRN 67905-19-5 | DTXSID1070800 | PFHxDA; ≥ 98% pure) was obtained from Cambridge Isotope Laboratories (Tewksbury, MA, USA) to serve as the internal standard since a labeled HFPO-TeA standard was not commercially available.
Aliquots (25 µL) were denatured with MeOH and H2O containing 0.1 M FA and then crashed using ACN. Volumes of MeOH, FA, and ACN were determined by the anticipated sample concentrations of […]
HFPO-TeA/mL plasma = 100 µL MeOH + 875 µL FA then 50 µL subsample removed and crashed with 950 µL ACN. Anticipated sample ranges were intentionally overlapped to account for HFPO-TeA concentration differences due to biological variability among the dose groups. The internal standard PFHxDA was added prior to the ACN crash. Samples were vortexed after the addition of each solvent. […]

SMILES: O=C(O)C(F)(OC(F)(F)C(F)(OC(F)(F)C(F)(OC(F)(F)C(F)(F)C(F)(F)F)C(F)(F)F)C(F)(F)F)C(F)(F)F (stereo not drawn) [HFPO-TeA, perfluoro-(2,5,8-trimethyl-3,6,9-trioxadodecanoic) acid]
- Plasma Conc. (0.3 mg/kg/day, F, 2 hours, individual rats): 0.124 µg/mL and 0.187 µM and 0.0778 µg/mL and 0.117 µM and 0.0785 µg/mL and 0.119 µM
- 5D Plasma Conc. (0.3 mg/kg/day, F, 5 days of exposure, mean ± SD n=4): 0.854 ± 0.086 µM
- Plasma Conc. (0.3 mg/kg/day, F, 5 days, individual rats): 0.492 µg/mL and 0.743 µM and 0.622 µg/mL and 0.939 µM
- Plasma Conc. (0.3 mg/kg/day, M, 2 hours, individual rats): 0.094 µg/mL and 0.142 µM and 0.086 µg/mL and 0.129 µM and 0.101 µg/mL and 0.153 µM
- 5D Plasma Conc. (0.3 mg/kg/day, M, 5 days of exposure, mean ± SD n=4): 0.827 ± 0.071 µM
- concentration at 5 days (0.3 mg/kg/day, M, 5 days of exposure, mean ± SD n=4, read-out: 5D Plasma Conc.): 827 nM
- Plasma Conc. (0.3 mg/kg/day, M, 5 days, individual rats): 0.586 µg/mL and 0.885 µM and 0.567 µg/mL
- Plasma Conc. (0.9 mg/kg/day, F, 2 hours, individual rats): 0.309 µg/mL and 0.467 µM and 0.418 µg/mL and 0.631 µM and 0.392 µg/mL and 0.592 µM
- Plasma Conc. (0.9 mg/kg/day, M, 2 hours, individual rats): 0.291 µg/mL and 0.439 µM and 0.450 µg/mL and 0.679 µM and 0.345 µg/mL and 0.521 µM
- 5D Plasma Conc. (0.9 mg/kg/day, M, 5 days of exposure, mean ± SD n=4): 2.73 ± 0.45 µM
- concentration at 5 days (0.9 mg/kg/day, M, 5 days of exposure, mean ± SD n=4, read-out: 5D Plasma Conc.): 2730 nM
- Plasma Conc. (0.9 mg/kg/day, M, 5 days, individual rats): 1.45 µg/mL and 2.19 µM and 2.16 µg/mL and 3.26 µM and 1.75 µg/mL and 2.65 µM
- Plasma Conc. (2.3 mg/kg/day, F, 2 hours, individual rats): 6.87 µg/mL and 10.4 µM and 7.78 µg/mL and 11.7 µM and 10.8 µg/mL and 16.3 µM and 14.6 µg/mL and 22.1 µM
- Plasma Conc. (2.3 mg/kg/day, M, 2 hours, individual rats): 11.4 µg/mL and 17.3 µM and 8.06 µg/mL and 12.2 µM and 7.45 µg/mL and 11.3 µM
- Plasma Conc. (2.3 mg/kg/day, M, 5 days, individual rats): 3.35 µg/mL and 5.06 µM and 3.50 µg/mL and 5.29 µM and 5.04 µg/mL and 7.61 µM
- Plasma Conc. (6.3 mg/kg/day, F, 2 hours, individual rats): 19.5 µg/mL and 29.5 µM and 43.9 µg/mL and 66.4 µM and 41.1 µg/mL and 62.0 µM and 36.3 µg/mL and 54.9 µM
- 5D Plasma Conc. (6.3 mg/kg/day, F, 5 days of exposure, mean ± SD n=4): 52.6 ± 14.3 µM
- Plasma Conc. (6.3 mg/kg/day, M, 2 hours, individual rats): 24.4 µg/mL and 36.8 µM and 17.1 µg/mL and 25.8 µM and 24.9 µg/mL and 37.7 µM
- Plasma Conc. (6.3 mg/kg/day, M, 5 days, individual rats): 15.5 µg/mL and 15.1 µg/mL and 22.9 µM and 23.8 µM and 18.5 µg/mL and 28.0 µM
- 2 h Plasma Conc. (17 mg/kg/day, F, 2 h after first dose, mean ± SD n=4): 224 ± 76 µM
- Plasma Conc. (17 mg/kg/day, F, 2 hours, individual rats): 197 µg/mL and 298 µM and 184 µg/mL and 278 µM and 94.0 µg/mL and 142 µM and 118 µg/mL and 179 µM
- 5D Plasma Conc. (17 mg/kg/day, F, 5 days of exposure, mean ± SD n=4): 278 ± 28 µM
- 2 h Plasma Conc. (17 mg/kg/day, M, 2 h after first dose, mean ± SD n=4): 126 ± 62 µM
- Plasma Conc. (17 mg/kg/day, M, 2 hours, individual rats): 60.6 µg/mL and 91.6 µM and 55.8 µg/mL and 84.3 µM and 73.0 µg/mL and 110 µM and 218 µM
- 5D Plasma Conc. (17 mg/kg/day, M, 5 days of exposure, mean ± SD n=4): 168 ± 53 µM
- concentration at 5 days (17 mg/kg/day, M, 5 days of exposure, mean ± SD n=4, read-out: 5D Plasma Conc.): 168000 nM
- Plasma Conc. (17 mg/kg/day, M, 5 days, individual rats): 65.4 µg/mL and 98.9 µM and 109 µg/mL and 165 µM and 150 µg/mL and 227 µM and 118 µg/mL and 179 µM
- concentration at 2 h (female, Sprague Dawley, rat, plasma, oral, 0.3 mg/kg/day, F, 2 h after first dose, mean ± SD n=4, read-out: 2 h Plasma Conc.): 0.137 ± 0.033 µM
- concentration at 2 h (female, Sprague Dawley, rat, plasma, oral, 0.3 mg/kg/day, F, 2 hours, individual rats, read-out: Plasma Conc.): 82 ng/mL and 124 nM
- concentration at 5 days (female, Sprague Dawley, rat, plasma, oral, 0.3 mg/kg/day, F, 5 days, individual rats, read-out: Plasma Conc.): 550 ng/mL and 831 nM
- concentration at 2 h (female, Sprague Dawley, rat, plasma, oral, 0.9 mg/kg/day, F, 2 h after first dose, mean ± SD n=4, read-out: 2 h Plasma Conc.): 0.62 ± 0.133 µM
- concentration at 2 h (female, Sprague Dawley, rat, plasma, oral, 0.9 mg/kg/day, F, 2 hours, individual rats, read-out: Plasma Conc.): 523 ng/mL and 790 nM
- concentration at 5 days (female, Sprague Dawley, rat, plasma, oral, 0.9 mg/kg/day, F, 5 days of exposure, mean ± SD n=4, read-out: 5D Plasma Conc.): 3620 ± 910 nM
- concentration at 5 days (female, Sprague Dawley, rat, plasma, oral, 0.9 mg/kg/day, F, 5 days, individual rats, read-out: Plasma Conc.): 1870 ng/mL and 2.83 µM
- concentration at 2 h (female, Sprague Dawley, rat, plasma, oral, 2.3 mg/kg/day, F, 2 h after first dose, mean ± SD n=4, read-out: 2 h Plasma Conc.): 15.1 ± 5.3 µM
- concentration at 5 days (female, Sprague Dawley, rat, plasma, oral, 2.3 mg/kg/day, F, 5 days of exposure, mean ± SD n=4, read-out: 5D Plasma Conc.): 8920 ± 2360 nM
- concentration at 5 days (female, Sprague Dawley, rat, plasma, oral, 2.3 mg/kg/day, F, 5 days, individual rats, read-out: Plasma Conc.): 5700 ng/mL and 8.62 µM
- concentration at 2 h (female, Sprague Dawley, rat, plasma, oral, 6.3 mg/kg/day, F, 2 h after first dose, mean ± SD n=4, read-out: 2 h Plasma Conc.): 53.2 ± 16.5 µM
- concentration at 5 days (female, Sprague Dawley, rat, plasma, oral, 6.3 mg/kg/day, F, 5 days of exposure, mean ± SD n=4, read-out: 5D Plasma Conc.): 52600 ± 14300 nM
- concentration at 5 days (female, Sprague Dawley, rat, plasma, oral, 6.3 mg/kg/day, F, 5 days, individual rats, read-out: Plasma Conc.): 33900 ng/mL and 51.2 µM
- concentration at 2 h (female, Sprague Dawley, rat, plasma, oral, 17 mg/kg/day, F, 2 h after first dose, mean ± SD n=4, read-out: 2 h Plasma Conc.): 224 ± 76 µM
- concentration at 5 days (female, Sprague Dawley, rat, plasma, oral, 17 mg/kg/day, F, 5 days, individual rats, read-out: Plasma Conc.): 200000 ng/mL and 302 µM
- concentration at 2 h (male, Sprague Dawley, rat, plasma, oral, 0.3 mg/kg/day, M, 2 h after first dose, mean ± SD n=4, read-out: 2 h Plasma Conc.): 0.15 ± 0.02 µM
- concentration at 2 h (male, Sprague Dawley, rat, plasma, oral, 0.3 mg/kg/day, M, 2 hours, individual rats, read-out: Plasma Conc.): 117 ng/mL and 176 nM
- concentration at 5 days (male, Sprague Dawley, rat, plasma, oral, 0.3 mg/kg/day, M, 5 days, individual rats, read-out: Plasma Conc.): 558 ng/mL and 843 nM
- concentration at 2 h (male, Sprague Dawley, rat, plasma, oral, 0.9 mg/kg/day, M, 2 h after first dose, mean ± SD n=4, read-out: 2 h Plasma Conc.): 0.573 ± 0.113 µM
- concentration at 2 h (male, Sprague Dawley, rat, plasma, oral, 0.9 mg/kg/day, M, 2 hours, individual rats, read-out: Plasma Conc.): 431 ng/mL and 651 nM
- concentration at 5 days (male, Sprague Dawley, rat, plasma, oral, 0.9 mg/kg/day, M, 5 days, individual rats, read-out: Plasma Conc.): 1870 ng/mL and 2.83 µM
- concentration at 2 h (male, Sprague Dawley, rat, plasma, oral, 2.3 mg/kg/day, M, 2 h after first dose, mean ± SD n=4, read-out: 2 h Plasma Conc.): 13.1 ± 2.8 µM
- concentration at 2 h (male, Sprague Dawley, rat, plasma, oral, 2.3 mg/kg/day, M, 2 hours, individual rats, read-out: Plasma Conc.): 7650 ng/mL and 11.6 µM
- concentration at 5 days (male, Sprague Dawley, rat, plasma, oral, 2.3 mg/kg/day, M, 5 days of exposure, mean ± SD n=4, read-out: 5D Plasma Conc.): 6640 ± 1730 nM
- concentration at 5 days (male, Sprague Dawley, rat, plasma, oral, 2.3 mg/kg/day, M, 5 days, individual rats, read-out: Plasma Conc.): 5680 ng/mL and 8.58 µM
- concentration at 2 h (male, Sprague Dawley, rat, plasma, oral, 6.3 mg/kg/day, M, 2 h after first dose, mean ± SD n=4, read-out: 2 h Plasma Conc.): 34 ± 5.5 µM
- concentration at 2 h (male, Sprague Dawley, rat, plasma, oral, 6.3 mg/kg/day, M, 2 hours, individual rats, read-out: Plasma Conc.): 23700 ng/mL and 35.8 µM
- concentration at 5 days (male, Sprague Dawley, rat, plasma, oral, 6.3 mg/kg/day, M, 5 days of exposure, mean ± SD n=4, read-out: 5D Plasma Conc.): 24500 ± 2300 nM
- concentration at 5 days (male, Sprague Dawley, rat, plasma, oral, 6.3 mg/kg/day, M, 5 days, individual rats, read-out: Plasma Conc.): 23300 nM
- concentration at 2 h (male, Sprague Dawley, rat, plasma, oral, 17 mg/kg/day, M, 2 h after first dose, mean ± SD n=4, read-out: 2 h Plasma Conc.): 126 ± 62 µM
